Test results reported in US9707184B2, “Immediate release abuse deterrent liquid fill dosage form” (priority 2014, dated 2017).

Test: Solubility of the formulation components in water and alcohol
Assay type: physicochemical
Settings: 200 proof ethanol, filtered through a 0.45 micrometer PTFE filter
From the text: Dyes can also be used and chosen to be soluble in both water and alcohol to produce a dark colored solution upon extraction and filtering as a visual deterrent to abuse. The formulation can include the following components listed in the Table 8 below, including a number of different dyes.

COc1ccc2c3c1O[C@H]1C(=O)CC[C@@]4(O)[C@@H](C2)N(C)CC[C@]314.Cl [Oxycodone HCl, reference compound]
Alcohol Solubility (Tested): Yes

CCN(Cc1cccc(S(=O)(=O)[O-])c1)c1ccc(C(=C2C=CC(=[N+](CC)Cc3cccc(S(=O)(=O)[O-])c3)C=C2)c2ccccc2S(=O)(=O)[O-])cc1.[Na+].[Na+] [FD&C Blue #1]
Alcohol Solubility (Tested): Yes

COc1cc(S(=O)(=O)[O-])c(C)cc1N=Nc1c(O)ccc2cc(S(=O)(=O)[O-])ccc12.[Na+].[Na+] [FD&C Red #40]
Alcohol Solubility (Tested): Yes
